US9018370B2, “Derivatives of uridine phosphate and their uses in protein binding assays” (King's College London of Strand, priority 2009, dated 2015)

How the values were obtained:
[1] = Absorbance and fluorescence spectra of 5-R-UMP analogues; assay type: physicochemical; conditions: for λmax: absorbance; for Emmax: fluorescence emission
Experimental: UV absorbance spectra were recorded on a PerkinElmer Lambda 25 UV-Vis spectrometer at ambient temperature in FarUV quartz cells (path length 1.0 cm). Fluorescence spectra were recorded on a PerkinElmer LS-45 spectrometer at ambient temperature in a quartz micro fluorescence cell (path length 1.0 cm).

[2] = Quantum yield determination of nucleotide derivatives; assay type: physicochemical; conditions: for Q.Y.: in water
Experimental: Nucleotide derivatives were serially diluted in H2O (10, 20, 30, 40 and 50 μM for absorbance measurements, and 0.2, 0.4, 0.6, 0.8, 1 μM for fluorescence measurements), and UV absorbance and fluorescence emission (with λmax absorbance=λem fluorescence) were recorded for all samples. To determine quantum yields, for each absorbance and fluorescence spectrum the area under the curve (AUC) was calculated by numerical integration, applying the mid-point rule. For each compound, AUCabs and AUCem were then plotted over compound concentration according to AUCabs=A×[conc]+B and AUCem=A′×[conc]+B′. From these linear plots, the gradients A and A′ were extracted, and for each compound the specific quantum yield φs, under these experimental conditions, was calculated as the ratio A′/A. Quantum yields determined with this protocol for two reference compounds, 2-aminopyridine and L-tryptophan (2-aminopyridine: 0.60; L-tryptophan: 0.14) were in exact agreement with literature values. The quantum yields for reference compounds were used to calculate the general quantum yield φg for each nucleotide analogue, according to φg=φref×(A′/A)/(A′/A)ref.
Fluorescent uracil nucleosides and (sugar-)nucleotides can be obtained by connecting a known chromophore/fluorophore via an electronically nonconjugating linker to the natural uracil base (Sinkeldam et al. Chem. Rev. 2010, 110, 2579-2619). The photophysical features of the resulting nucleoside/(sugar-)nucleotide analogue are usually very similar to that of the parent fluorophore (Sinkeldam et al. Chem. Rev. 2010, 110, 2579-2619). In contrast, extending the uracil by electronically conjugating the base to additional aromatic moieties typically generates a new chromophore with unique, and somewhat unpredictable, photophysical characteristics (Sinkeldam et al. Chem. Rev. 2010, 110, 2579-2619). To precisely measure the intensity of the fluorescence emitted by the brightest fluorophores described above, we determined their quantum yield. These measurements were performed in water following the procedure reported by Nighswander-Remper and the results are shown in Table B below. Quantum yield determinations confirmed that 2p and 2q display the highest fluorescence and are 10-fold brighter than any other nucleotide analogues with a compact aryl- or heteroaryl substituent in position 5 that have been reported to date (Sinkeldam et al. Chem. Rev. 2010, 110, 2579-2619). That 2p and 2q absorb and fluoresce at long wavelength is an attractive feature, which makes these fluorophores suitable for analyses in biological environments. Additionally, we found the intensity of the fluorescence emission is conserved for UDP and UTP analogues, thereby providing attractive fluorescence probes candidates for fluorimetric assays.

B. taurus α-1,3-GalT = biological target: T1, B. taurus α-1,3-GalT (Bos taurus, UniProt P14769); test: Donor kinetics of UDP-Gal derivatives with GalT, HPLC; assay type: biochemical; conditions: MnCl2 20 mM, MOPS pH 7.2, 37° C.
T1 construct: made in house
Experimental: J. Am. Chem. Soc. 122, 261-1269 (2000); Rich, J. R.; Szpacenko, A.; Palcic, M. M. & Bundle, D. R. Glycosyltransferase-Catalyzed Synthesis of Thiooligosaccharides. Angew. Chem. Int. Ed. […] ChemBioChem 9, 1632-1640 (2008). […] (total volume 100 μL, all concentrations are final concentrations). The reactions were stopped by cooling in dry ice. Samples were analysed immediately by HPLC on a PerkinElmer Series 200 machine equipped with a Supelcosil LC-18-T column (5 μm, 25 cm×4.6 mm), a column oven (set to 30° C.), and a diode array detector. Each sample (injection volume 40 μL) was eluted at 1.5 mL/min with a gradient of methanol (10-30%) against 0.5 M phosphate buffer (adjusted to pH 8 with triethylamine). […] Km and vmax values were determined by fitting data points to a Michaelis-Menten curve using GraFit 5.0.10.

[3] = Quantum yield determination of UDP-Gal derivatives 3a-d; assay type: physicochemical; conditions: in H2O
Experimental: To determine quantum yields, for each absorbance and fluorescence spectrum the area under the curve (AUC) was calculated by numerical integration, applying the mid-point rule. For each compound, AUCabs and AUCfluo were then plotted over compound concentration according to AUCabs=A×[conc]+B (equation 1) and AUCfluo=A′×[conc]+B′ (equation 2). […] The quantum yields for reference compounds were used to calculate the general quantum yield φg for each compound 3a-d, according to φg=φref×(A′/A)/(A′/A)ref.

Ggta1 = biological target: T2, Ggta1 (Bos taurus, UniProt P14769); test: Variation in fluorescence of 3d and analogues upon incubation with Ggta1; assay type: binding, B. taurus; conditions: various concentrations of Ggta1
T2 construct: made in house
Experimental: Fluorescence intensity measurements with 3d were carried out in black NUNC F96 MicroWell polystyrene plates on a BMG labtech PolarStar microplate reader equipped with a 350±5 nm excitation filter and a 430±5 nm emission filter. The number of flashes per wells was set to 50 (gain: 2240; position delay: 0.2 s). Prior to readings, plates were incubated, with shaking, for 10 min at 30° C. (double orbital, shaking width 4 mm, 10 seconds). Results were visualised with BMG labtech data analysis software Mars 1.10 and analysed with GraFit version 5.0.10.
Samples were pipetted into the requisite wells of a black NUNC 96-well plate as shown in tables E1-E3, at the end of the description. Key: B—Tris/HCl buffer (50 mM, pH 7; 40 μL); F—fluorophore 3d (200 nM in Tris/HCl buffer; 40 μL); M—MnCl2 (10 mM in Tris/HCl buffer; […]); E—galactosyltransferase (in Tris/HCl buffer; 40 μL); I—inhibitor (in Tris/HCl buffer; 40 μL). Total volume/well: 200 μL. All experiments were carried out in triplicate, unless indicated otherwise.
We also carried out an experiment on 3d (numbered 18e in FIG. 4) and different analogues of 3d, namely the nucleoside 5h, the nucleotide 6r and nucleoside diphosphate 22d, to show their variation in fluorescence on binding to Ggta1.
The synthesis of 5h, 6r and 22d are shown below. The protocol for the microplate/fluorescence experiments was the same as in Example 2.

T1 sequence (P14769 whole entry): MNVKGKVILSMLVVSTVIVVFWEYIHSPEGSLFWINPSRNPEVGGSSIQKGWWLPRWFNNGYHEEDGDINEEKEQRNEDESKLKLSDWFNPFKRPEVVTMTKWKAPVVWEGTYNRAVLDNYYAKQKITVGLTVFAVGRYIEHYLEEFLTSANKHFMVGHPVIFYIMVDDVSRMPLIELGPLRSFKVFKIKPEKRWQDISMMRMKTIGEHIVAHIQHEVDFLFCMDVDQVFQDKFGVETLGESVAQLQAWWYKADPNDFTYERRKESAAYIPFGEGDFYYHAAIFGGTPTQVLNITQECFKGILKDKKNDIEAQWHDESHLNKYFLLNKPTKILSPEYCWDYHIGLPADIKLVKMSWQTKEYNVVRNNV
T2 sequence (P14769 whole entry): as above

| SMILES | Fluo Intensity at 100 μM [1] | λmax [1] | Emmax [1] | other results |
| --- | --- | --- | --- | --- |
| O=Cc1ccsc1-c1cn([C@@H]2O[C@H](COP(=O)(O)O)[C@@H](O)[C@H]2O)c(=O)[nH]c1=O [2o, 5-(3-Formylthien-2-yl)-uridine-5′-monophosphate] | 387 a.u. | 267 nm | 453 nm | Q.Y. [2]: 0.02 |
| O=c1[nH]c(=O)n([C@@H]2O[C@H](COP(=O)(O)OP(=O)(O)O[C@H]3O[C@H](CO)[C@H](O)[C@H](O)[C@H]3O)[C@@H](O)[C@H]2O)cc1-c1ccccc1 [3a, 5-Phenyl UDP-α-D-galactose] |  |  |  | Km (B. taurus α-1,3-GalT): 96 ± 8 µM; kcat (B. taurus α-1,3-GalT): 0.0021 s⁻¹; Quantum yield [3]: <0.01 |
| O=c1[nH]c(=O)n([C@@H]2O[C@H](COP(=O)(O)OP(=O)(O)O[C@H]3O[C@H](CO)[C@H](O)[C@H](O)[C@H]3O)[C@@H](O)[C@H]2O)cc1-c1ccco1 [3c, 5-(2-Furyl)-UDP-α-D-galactose] |  |  |  | Km (B. taurus α-1,3-GalT): 69 ± 13 µM; kcat (B. taurus α-1,3-GalT): 0.0044 s⁻¹; Quantum yield [3]: 0.04 |
| CC(C)(C)OC(=O)NCc1cccc(-c2cn([C@@H]3O[C@H](COP(=O)(O)O)[C@@H](O)[C@H]3O)c(=O)[nH]c2=O)c1 [2d, 5-(3-N-BOC-aminomethylphenyl)-uridine-5′-monophosphate] | 11.6 a.u. | 281 nm | 427 nm |  |
| COc1ccc(-c2cn([C@@H]3O[C@H](COP(=O)(O)OP(=O)(O)O[C@H]4O[C@H](CO)[C@H](O)[C@H](O)[C@H]4O)[C@@H](O)[C@H]3O)c(=O)[nH]c2=O)cc1 [3b, 5-(4-Methoxyphenyl)-UDP-α-D-galactose] |  |  |  | Km (B. taurus α-1,3-GalT): 82 ± 11 µM; kcat (B. taurus α-1,3-GalT): 0.004 s⁻¹; Quantum yield [3]: 0.024 |
| O=c1[nH]c(=O)n([C@@H]2O[C@H](COP(=O)(O)O)[C@@H](O)[C@H]2O)cc1I [compound 1, 5-Iodouridine-5′-monophosphate] |  | 262 nm | 377 nm |  |
| O=Cc1ccc(-c2cn([C@@H]3O[C@H](COP(=O)(O)O)[C@@H](O)[C@H]3O)c(=O)[nH]c2=O)o1 [2n] | 640 a.u. | 348 nm | 431 nm | Q.Y. [2]: 0.04 |
| O=Cc1ccc(-c2cn([C@@H]3O[C@H](COP(=O)(O)OP(=O)(O)O)[C@@H](O)[C@H]3O)c(=O)[nH]c2=O)s1 [22d, 5-(5-Formylthien-2-yl)-UDP] |  |  |  | Variation in fluorescence on binding to Ggta1 (Ggta1): varied their intensity of luminescence with Ggta1 |
| CC(=O)c1ccc(-c2cn([C@@H]3O[C@H](COP(=O)(O)O)[C@@H](O)[C@H]3O)c(=O)[nH]c2=O)s1 [2p, 5-(5-Acetylthien-2-yl)-uridine-5′-monophosphate] | >650 a.u. | 348 nm | 433 nm | Brightness relative to any other reported 5-aryl/heteroaryl nucleotide analogues [2]: 10 fold; Q.Y. [2]: 0.24 |
| O=c1[nH]c(=O)n([C@@H]2O[C@H](COP(=O)(O)O)[C@@H](O)[C@H]2O)cc1-c1ccc(C(F)(F)F)cc1 [2i, 5-(4-Trifluoromethylphenyl)-uridine-5′-monophosphate] | 5.3 a.u. | 280 nm | 383 nm |  |
| O=c1[nH]c(=O)n([C@@H]2O[C@H](COP(=O)(O)O)[C@@H](O)[C@H]2O)cc1-c1ccc2ccccc2c1 [2g, 5-(2-Naphtyl)-uridine-5′-monophosphate] | 32.2 a.u. | 221 nm | 450 nm |  |
| O=C(O)c1ccc(-c2cn([C@@H]3O[C@H](COP(=O)(O)O)[C@@H](O)[C@H]3O)c(=O)[nH]c2=O)cc1 [2h, 5-(4-Carboxyphenyl)-uridine-5′-monophosphate] | 17.6 a.u. | 283 nm | 411 nm |  |
| O=c1[nH]c(=O)n([C@@H]2O[C@H](COP(=O)(O)O)[C@@H](O)[C@H]2O)cc1-c1ccccc1O [2f, 5-(2-Hydroxyphenyl)-uridine-5′-monophosphate] | 0.9 a.u. | 273 nm | 415 nm |  |

More lines, main results first:

| Fluo Intensity at 100 μM [1] | λmax [1] | Emmax [1] | SMILES | other results |
| --- | --- | --- | --- | --- |
| 40 a.u. | 278 nm | 403 nm | O=c1[nH]c(=O)n([C@@H]2O[C@H](COP(=O)(O)O)[C@@H](O)[C@H]2O)cc1-c1ccccc1 [2a, 5-Phenyluridine-5′-monophosphate] |  |
| 78 a.u. | 281 nm | 398 nm | O=c1[nH]c(=O)n([C@@H]2O[C@H](COP(=O)(O)O)[C@@H](O)[C@H]2O)cc1-c1ccc(Cl)cc1 [2b, 5-(4-Chlorophenyl)-uridine-5′-monophosphate] | Q.Y. [2]: 0.001 |
| 5.3 a.u. | 278 nm | 382 nm | CS(=O)(=O)c1cccc(-c2cn([C@@H]3O[C@H](COP(=O)(O)O)[C@@H](O)[C@H]3O)c(=O)[nH]c2=O)c1 [2k, 5-(3-Methanesulfonylphenyl)-uridine-5′-monophosphate] |  |
| 6.7 a.u. | 279 nm | 434 nm | Cc1ccc(-c2cn([C@@H]3O[C@H](COP(=O)(O)O)[C@@H](O)[C@H]3O)c(=O)[nH]c2=O)cc1[N+](=O)[O-] [2c] |  |
| 497 a.u. | 314 nm | 437 nm | O=c1[nH]c(=O)n([C@@H]2O[C@H](COP(=O)(O)O)[C@@H](O)[C@H]2O)cc1-c1ccco1 [2m, 5-(Furan-2-yl)-uridine-5′-monophosphate] | Q.Y. [2]: 0.04 |
| 603 a.u. | 279 nm | 444 nm | COc1ccc(-c2cn([C@@H]3O[C@H](COP(=O)(O)O)[C@@H](O)[C@H]3O)c(=O)[nH]c2=O)cc1 [2l, 5-(4-Methoxyphenyl)-uridine-5′-monophosphate] | Q.Y. [2]: 0.02 |
| 74.8 a.u. | 289 nm | 414 nm | COc1cncc(-c2cn([C@@H]3O[C@H](COP(=O)(O)O)[C@@H](O)[C@H]3O)c(=O)[nH]c2=O)c1 [2j, 5-(5-Methoxy-3-pyridyl)-uridine-5′-monophosphate] |  |
|  | 285 nm |  | O=c1[nH]c(=O)n([C@@H]2O[C@H](COP(=O)(O)O)[C@@H](O)[C@H]2O)cc1-c1cccc(O)c1 [2e, 5-(3-Hydroxyphenyl)-uridine-5′-monophosphate] |  |
